Activity calls are given as the source filed them. No cut-off for these calls is given here.
What was measured:
Mus musculus [1] = assay: Antidepressant activity in Swiss albino mouse assessed as reduction of immobility time at 20 mg/kg, ip measured during last 4 mins of a 6 mins test session by forced swim test; format: functional; parameters: scale not given: the % may be the effect or the level left; conditions: route intraperitoneal
[2] = molecular target: T1, Adrenergic receptor alpha-1 (Rattus norvegicus, UniProt P15823+P23944+P43140)
T1 sequence (P15823 whole entry): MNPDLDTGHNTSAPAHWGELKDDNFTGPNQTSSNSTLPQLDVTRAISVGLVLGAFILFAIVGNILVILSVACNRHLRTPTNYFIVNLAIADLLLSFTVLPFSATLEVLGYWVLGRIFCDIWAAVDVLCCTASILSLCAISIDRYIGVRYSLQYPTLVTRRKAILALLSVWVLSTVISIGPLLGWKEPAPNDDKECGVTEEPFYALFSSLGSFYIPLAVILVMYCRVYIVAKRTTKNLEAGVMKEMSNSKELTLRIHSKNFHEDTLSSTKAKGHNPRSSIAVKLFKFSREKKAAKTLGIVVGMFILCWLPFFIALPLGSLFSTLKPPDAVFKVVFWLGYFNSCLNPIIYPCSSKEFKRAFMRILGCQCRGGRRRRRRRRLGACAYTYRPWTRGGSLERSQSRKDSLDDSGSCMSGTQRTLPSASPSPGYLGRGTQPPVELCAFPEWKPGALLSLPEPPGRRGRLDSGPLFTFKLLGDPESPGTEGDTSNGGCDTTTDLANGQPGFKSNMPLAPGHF
T1 sequence (P23944 whole entry): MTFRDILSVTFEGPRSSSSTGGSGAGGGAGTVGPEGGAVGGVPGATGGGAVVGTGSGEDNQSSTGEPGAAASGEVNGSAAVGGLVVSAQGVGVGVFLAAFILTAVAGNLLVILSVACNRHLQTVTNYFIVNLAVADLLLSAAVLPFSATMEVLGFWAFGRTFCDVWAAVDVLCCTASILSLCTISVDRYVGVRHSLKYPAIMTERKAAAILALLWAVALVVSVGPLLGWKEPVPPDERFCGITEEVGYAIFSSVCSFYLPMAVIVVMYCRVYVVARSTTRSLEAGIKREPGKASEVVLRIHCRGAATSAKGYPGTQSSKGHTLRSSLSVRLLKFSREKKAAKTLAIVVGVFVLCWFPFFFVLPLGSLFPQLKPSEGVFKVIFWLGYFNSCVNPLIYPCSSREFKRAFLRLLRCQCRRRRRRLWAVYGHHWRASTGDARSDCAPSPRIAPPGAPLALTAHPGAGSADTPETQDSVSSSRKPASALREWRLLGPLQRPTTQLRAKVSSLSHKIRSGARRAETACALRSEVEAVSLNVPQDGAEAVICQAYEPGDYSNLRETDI
T1 sequence (P43140 whole entry): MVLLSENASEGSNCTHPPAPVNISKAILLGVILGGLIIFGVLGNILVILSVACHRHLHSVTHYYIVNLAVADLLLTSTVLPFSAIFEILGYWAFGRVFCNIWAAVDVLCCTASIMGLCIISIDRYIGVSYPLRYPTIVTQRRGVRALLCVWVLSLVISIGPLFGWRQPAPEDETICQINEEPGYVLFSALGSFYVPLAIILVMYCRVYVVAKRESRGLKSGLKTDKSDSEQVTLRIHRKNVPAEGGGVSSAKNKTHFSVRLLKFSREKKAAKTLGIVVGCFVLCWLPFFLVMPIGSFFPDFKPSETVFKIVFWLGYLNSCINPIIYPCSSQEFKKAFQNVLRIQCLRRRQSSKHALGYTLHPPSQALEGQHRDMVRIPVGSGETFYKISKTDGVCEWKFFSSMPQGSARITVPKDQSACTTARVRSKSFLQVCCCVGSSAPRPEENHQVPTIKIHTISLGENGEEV
Description: Displacement of [3H]-Prazosin from adrenergic alpha1 receptor in rat cortex after 30 mins by scintillation counting

Mus musculus [3] = species: Mus musculus; assay: animal or person; conditions: Swiss albino, ip, read-out: ID50
Description: Antipsychotic activity in ip dosed Swiss albino mouse assessed as inhibition of apomorphine-induced climbing behavior administered 10 mins before apomorphine-challenge measured after 2 mins

[4] = molecular target: T2, 5-hydroxytryptamine receptor 1A (Homo sapiens, UniProt P08908); assay: biochemical
T2 sequence (P08908 whole entry): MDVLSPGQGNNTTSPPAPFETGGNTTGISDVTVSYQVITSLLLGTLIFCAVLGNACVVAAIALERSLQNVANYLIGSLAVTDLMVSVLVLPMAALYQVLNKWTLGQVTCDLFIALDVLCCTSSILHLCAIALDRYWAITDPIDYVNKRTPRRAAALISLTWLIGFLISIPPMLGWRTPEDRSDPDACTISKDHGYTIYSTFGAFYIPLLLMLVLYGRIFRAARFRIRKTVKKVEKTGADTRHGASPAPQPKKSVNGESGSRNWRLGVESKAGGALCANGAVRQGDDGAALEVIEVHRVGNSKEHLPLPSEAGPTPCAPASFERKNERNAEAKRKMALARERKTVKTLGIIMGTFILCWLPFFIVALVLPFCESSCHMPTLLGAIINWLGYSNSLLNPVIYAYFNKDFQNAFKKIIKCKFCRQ

Mus musculus [5] = assay: Antipsychotic activity in CD1 mouse assessed as inhibition MK-801-evoked hyperactivity at 10 to 20 mg/kg, ip after 30 mins; format: functional, organism-based
D(2) dopamine receptor = D(2) dopamine receptor (Homo sapiens, UniProt P14416); assay: biochemical; format: cell-based, HEK293
Sequence of D(2) dopamine receptor (P14416 whole entry): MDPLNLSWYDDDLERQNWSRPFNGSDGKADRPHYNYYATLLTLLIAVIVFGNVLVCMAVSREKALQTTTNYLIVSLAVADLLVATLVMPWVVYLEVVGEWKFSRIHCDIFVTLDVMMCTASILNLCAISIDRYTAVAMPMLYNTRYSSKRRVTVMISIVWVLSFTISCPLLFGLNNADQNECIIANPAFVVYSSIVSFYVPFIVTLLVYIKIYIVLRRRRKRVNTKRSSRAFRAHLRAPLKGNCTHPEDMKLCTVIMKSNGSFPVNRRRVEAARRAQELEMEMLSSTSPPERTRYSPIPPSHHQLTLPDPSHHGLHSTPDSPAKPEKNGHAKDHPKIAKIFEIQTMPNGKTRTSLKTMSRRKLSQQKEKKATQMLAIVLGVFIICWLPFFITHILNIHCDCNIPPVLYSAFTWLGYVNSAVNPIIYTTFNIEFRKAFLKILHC
Description: Displacement of [3H]-raclopride from human dopamine D2L receptor expressed in HEK293 after 1 hr

Mus musculus [6] = assay: Antipsychotic activity in Swiss albino mouse assessed as inhibition of apomorphine-induced climbing behavior at 5 mg/kg, ip administered 10 mins before apomorphine-challenge measured after 2 mins; format: functional; conditions: route intraperitoneal
Mus musculus [7] = assay: Toxicity in Swiss albino mouse assessed as locomotor activity at 5 to 20 mg/kg, ip measured after 2 to 6 mins; format: organism-based; parameters: route intraperitoneal; conditions: in vivo
[8] = molecular target: T3, 5-hydroxytryptamine receptor 7 (Homo sapiens, UniProt P34969); assay: biochemical
T3 sequence (P34969 whole entry): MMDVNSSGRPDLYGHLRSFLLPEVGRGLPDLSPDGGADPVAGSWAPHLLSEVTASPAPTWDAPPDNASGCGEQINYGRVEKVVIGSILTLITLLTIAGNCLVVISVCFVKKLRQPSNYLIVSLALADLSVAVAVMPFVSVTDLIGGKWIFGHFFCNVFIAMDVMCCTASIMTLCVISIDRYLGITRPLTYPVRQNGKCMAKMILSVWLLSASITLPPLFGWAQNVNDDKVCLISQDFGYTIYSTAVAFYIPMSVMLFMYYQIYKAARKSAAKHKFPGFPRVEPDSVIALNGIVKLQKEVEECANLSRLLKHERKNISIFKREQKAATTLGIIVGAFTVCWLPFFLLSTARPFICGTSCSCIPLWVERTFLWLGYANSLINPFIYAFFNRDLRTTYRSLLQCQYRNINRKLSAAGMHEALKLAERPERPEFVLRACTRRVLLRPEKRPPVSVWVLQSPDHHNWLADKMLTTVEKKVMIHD

[9] = molecular target: D(3) dopamine receptor (Homo sapiens) (UniProt P35462); assay: Displacement of [3H]-methylspiperone from human dopamine D3 receptor expressed in HEK293 at 10^-6 M after 1 hr; format: cell-based
Sequence of D(3) dopamine receptor (Homo sapiens) (P35462 whole entry): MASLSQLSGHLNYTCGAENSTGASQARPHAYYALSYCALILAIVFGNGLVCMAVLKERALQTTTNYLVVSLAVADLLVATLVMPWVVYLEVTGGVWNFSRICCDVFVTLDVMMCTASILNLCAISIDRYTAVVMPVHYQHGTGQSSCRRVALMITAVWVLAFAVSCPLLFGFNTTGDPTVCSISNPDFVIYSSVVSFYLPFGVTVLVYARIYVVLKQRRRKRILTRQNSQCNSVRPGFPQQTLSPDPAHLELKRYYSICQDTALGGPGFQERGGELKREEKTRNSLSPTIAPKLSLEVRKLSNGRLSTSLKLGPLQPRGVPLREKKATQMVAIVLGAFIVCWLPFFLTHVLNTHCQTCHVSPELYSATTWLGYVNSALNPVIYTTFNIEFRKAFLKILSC

[10] = molecular target: D(3) dopamine receptor (Homo sapiens) (UniProt P35462); assay: Displacement of [3H]-methylspiperone from human dopamine D3 receptor expressed in HEK293 at 10^-7 M after 1 hr; format: cell-based
[11] = molecular target: T2, 5-hydroxytryptamine receptor 1A
Description: Agonist activity at human 5HT1A receptor expressed in CHO cells assessed as cAMP accumulation

[12] = molecular target: T4, 5-hydroxytryptamine receptor 6 (Homo sapiens, UniProt P50406); assay: biochemical
T4 sequence (P50406 whole entry): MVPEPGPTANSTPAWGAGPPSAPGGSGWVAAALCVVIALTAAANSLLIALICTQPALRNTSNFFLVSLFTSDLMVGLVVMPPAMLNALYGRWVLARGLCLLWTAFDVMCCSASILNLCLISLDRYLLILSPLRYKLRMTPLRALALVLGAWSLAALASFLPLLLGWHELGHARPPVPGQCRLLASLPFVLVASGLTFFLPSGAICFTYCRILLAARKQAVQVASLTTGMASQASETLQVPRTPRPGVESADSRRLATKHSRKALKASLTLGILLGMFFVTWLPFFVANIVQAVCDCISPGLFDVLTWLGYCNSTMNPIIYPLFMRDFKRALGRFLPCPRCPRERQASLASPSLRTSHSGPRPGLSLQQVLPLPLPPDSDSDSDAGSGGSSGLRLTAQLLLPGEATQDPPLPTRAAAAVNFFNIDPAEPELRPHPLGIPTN
Description: (§1) Displacement of [3H]-LSD from human 5HT6 receptor expressed in HEK293 after 1 hr

[13] = molecular target: T3, 5-hydroxytryptamine receptor 7
[14] = molecular target: Sodium-dependent serotonin transporter (Rattus norvegicus, UniProt P31652); assay: biochemical
Sequence of Sodium-dependent serotonin transporter (P31652 whole entry): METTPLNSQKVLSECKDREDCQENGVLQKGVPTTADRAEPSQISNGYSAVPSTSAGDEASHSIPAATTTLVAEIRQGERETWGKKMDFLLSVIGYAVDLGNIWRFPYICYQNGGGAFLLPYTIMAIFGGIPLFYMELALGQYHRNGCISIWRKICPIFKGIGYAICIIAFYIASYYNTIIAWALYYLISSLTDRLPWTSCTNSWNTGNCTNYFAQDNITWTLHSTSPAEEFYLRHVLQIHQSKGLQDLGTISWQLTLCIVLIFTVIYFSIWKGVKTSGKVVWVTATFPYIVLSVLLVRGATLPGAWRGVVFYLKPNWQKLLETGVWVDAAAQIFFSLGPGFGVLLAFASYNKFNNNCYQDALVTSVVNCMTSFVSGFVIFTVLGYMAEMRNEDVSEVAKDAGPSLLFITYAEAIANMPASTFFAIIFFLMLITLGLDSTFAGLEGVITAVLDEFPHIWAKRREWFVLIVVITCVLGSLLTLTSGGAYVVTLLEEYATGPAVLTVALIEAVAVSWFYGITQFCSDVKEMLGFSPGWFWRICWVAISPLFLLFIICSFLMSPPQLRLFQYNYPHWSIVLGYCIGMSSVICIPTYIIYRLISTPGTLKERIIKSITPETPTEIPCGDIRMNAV

[15] = molecular target: 5-hydroxytryptamine receptor 2A (Homo sapiens, UniProt P28223); assay: biochemical
Sequence of 5-hydroxytryptamine receptor 2A (P28223 whole entry): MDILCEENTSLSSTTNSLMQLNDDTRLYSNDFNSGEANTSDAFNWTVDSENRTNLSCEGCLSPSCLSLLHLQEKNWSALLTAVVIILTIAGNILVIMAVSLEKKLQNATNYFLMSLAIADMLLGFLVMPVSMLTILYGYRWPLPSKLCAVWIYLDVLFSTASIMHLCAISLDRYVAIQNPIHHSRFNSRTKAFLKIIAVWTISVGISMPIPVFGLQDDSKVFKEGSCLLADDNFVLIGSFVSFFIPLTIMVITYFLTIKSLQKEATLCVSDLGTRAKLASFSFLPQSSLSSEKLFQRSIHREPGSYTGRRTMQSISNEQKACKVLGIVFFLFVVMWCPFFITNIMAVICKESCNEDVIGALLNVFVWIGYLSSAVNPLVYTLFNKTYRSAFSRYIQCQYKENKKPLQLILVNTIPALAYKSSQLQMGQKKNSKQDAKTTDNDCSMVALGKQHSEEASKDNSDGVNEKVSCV
Description: Displacement of [3H]-ketanserin from human 5HT2A receptor expressed in HEK293 after 1.5 hrs

Mus musculus [16] = species: Mus musculus; assay: animal or person; conditions: Swiss albino, ip, 20 min, read-out: ID50
Description: Antipsychotic activity in ip dosed Swiss albino mouse assessed as inhibition of (+/-)DOI-induced head twitch response after 20 mins

Mus musculus [17] = assay: Antidepressant activity in Swiss albino mouse assessed as reduction of immobility time at 10 mg/kg, ip measured during last 4 mins of a 6 mins test session by forced swim test; format: functional; parameters: scale not given: the % may be the effect or the level left; conditions: route intraperitoneal
Mus musculus [18] = assay: Antipsychotic activity in CD1 mouse assessed as inhibition MK-801-evoked hyperactivity at 2.5 to 20 mg/kg, ip after 30 mins; format: functional, organism-based
[19] = molecular target: T3, 5-hydroxytryptamine receptor 7; remark: listed apart in the source
[20] = molecular target: T4, 5-hydroxytryptamine receptor 6
Description: as §1

Mus musculus [21] = assay: Antidepressant activity in Swiss albino mouse assessed as reduction of immobility time at 5 mg/kg, ip measured during last 4 mins of a 6 mins test session by forced swim test; format: functional; parameters: scale not given: the % may be the effect or the level left; conditions: route intraperitoneal
Mus musculus [22] = assay: Antipsychotic activity in Swiss albino mouse assessed as inhibition of apomorphine-induced climbing behavior at 1.25 mg/kg, ip administered 10 mins before apomorphine-challenge measured after 2 mins; format: functional; conditions: route intraperitoneal
[23] = molecular target: T2, 5-hydroxytryptamine receptor 1A; remark: listed apart in the source
Mus musculus [24] = assay: Toxicity in CD1 mouse assessed as increase of MK-801-evoked hyperactivity at 10 mg/kg, ip after 30 mins; format: organism-based; parameters: dose 10 mg/kg, route intraperitoneal; conditions: in vivo, 0.5 h
Mus musculus [25] = assay: Toxicity in Swiss albino mouse assessed as locomotor activity at 20 mg/kg, ip measured after 2 to 6 mins; format: organism-based; parameters: dose 20 mg/kg, route intraperitoneal; conditions: in vivo
Mus musculus [26] = assay: Antipsychotic activity in Swiss albino mouse assessed as inhibition of apomorphine-induced climbing behavior at 2.5 mg/kg, ip administered 10 mins before apomorphine-challenge measured after 2 mins; format: functional, organism-based; parameters: dose 2.5 mg/kg
Mus musculus [27] = assay: Toxicity in CD1 mouse assessed as increase of MK-801-evoked hyperactivity at 20 mg/kg, ip after 30 mins; format: organism-based; parameters: dose 20 mg/kg, route intraperitoneal; conditions: in vivo, 0.5 h

| SMILES | Activity (Mus musculus [1]) [%] | Ki [2] [nM] | ED50 (Mus musculus [3]) [mg/kg] | Ki [4] [nM] | Ki (D(2) dopamine receptor) [nM] | inhibition in vivo at 5 mg/kg (Mus musculus [6]) [%] | Activity (Mus musculus [7]) | Ki [8] [nM] | inhibition [9] [%] | inhibition [10] [%] | EC50 [11] [nM] | Ki [12] [nM] | IC50 [13] [nM] | Ki [14] [nM] | Ki [15] [nM] | ED50 (Mus musculus [16]) [mg/kg] | Activity (Mus musculus [17]) [%] | further results |
| --- | --- | --- | --- | --- | --- | --- | --- | --- | --- | --- | --- | --- | --- | --- | --- | --- | --- | --- |
| O=S(=O)(NCCCCN1CCN(c2cccc(Cl)c2Cl)CC1)c1cncc2ccccc12 | 44 | 160 | 11.3 | 59 | 8 | 44.6 | Non-toxic | 21 | 95 | 93 | 15000 | 220 | 820 | 783 | 90 | 5.3 |  | inhibition (Mus musculus [5]): Active |
| O=S(=O)(NCCCCN1CCN(c2cccc(Cl)c2Cl)CC1)c1cnc2ccccc2c1 | 30 | 170 | 20.7 | 23 | 9 | 49.3 | Non-toxic | 30 | 99 | 94 | 1650 | 1330 | 7800 | 1200 | 34 | 20.2 | 31 | inhibition (Mus musculus [18]): inactive |
| O=S(=O)(NCCCCN1CCN(c2cccc(Cl)c2Cl)CC1)c1cc2ccccc2cn1 | 83 | 255 | 19.9 |  | 17 |  | Non-toxic |  | 98 | 95 | 15500 |  | 5600 | 335 | 35 | 9.03 | 53 | Ki [19]: 56 nM; Ki [20]: 454 nM; Activity (Mus musculus [21]): 43%; inhibition (Mus musculus [18]): inactive; inhibition in vivo at 1.25 mg/kg (Mus musculus [22]): 49.1%; Ki [23]: 34 nM |
| CSc1ccc2c(c1)C(CCN)=CC2 [METHIOTHEPINE] |  |  |  |  |  |  |  |  |  |  |  |  | 2.2 |  |  |  |  |  |
| O=S(=O)(NCCCCN1CCN(c2cccc(Cl)c2Cl)CC1)c1ccc2ncccc2c1 |  |  |  | 79 |  |  |  | 124 |  |  |  | 484 |  |  | 23 |  |  |  |
| O=S(=O)(NCCCCN1CCN(c2cccc(Cl)c2Cl)CC1)c1ccc2cccnc2c1 | 41 | 136 | 19.9 |  | 11 | 43.6 |  |  | 101 | 99 | 865 |  | 3800 | 788 | 22 | 4.58 | 48 | Activity (Mus musculus [24]): Toxic; Ki [19]: 31 nM; Ki [20]: 301 nM; Activity (Mus musculus [25]): Toxic; Ki [23]: 17 nM |
| O=S(=O)(NCCCN1CCN(c2cccc(Cl)c2Cl)CC1)c1cnc2ccc(Cl)cc2c1 |  |  |  | 23 |  |  |  | 46 |  |  |  | 901 |  |  | 115 |  |  |  |
| O=S(=O)(NCCCCN1CCN(c2cccc(Cl)c2Cl)CC1)c1cnc2ccc(Cl)cc2c1 |  |  |  | 88 |  |  |  | 41 |  |  |  | 555 |  |  | 42 |  |  |  |
| O=S(=O)(NCCCN1CCN(c2cccc(Cl)c2Cl)CC1)c1ccc2ncccc2c1 |  |  |  | 25 |  |  |  | 31 |  |  |  | 326 |  |  | 65 |  |  |  |
| O=S(=O)(NCCCCN1CCN(c2cccc(Cl)c2Cl)CC1)c1cccc2cccnc12 |  |  |  | 112 |  |  |  | 27 |  |  |  | 598 |  |  | 29 |  |  |  |
| O=S(=O)(NCCCN1CCN(c2cccc(Cl)c2Cl)CC1)c1ccc2cccnc2c1 |  | 186 |  |  | 16 | 50.5 | Non-toxic |  | 99 | 90 | 7400 |  | 2800 | 224 | 47 | 10.2 | 79 | Ki [19]: 12 nM; Activity (Mus musculus [26]): Active; Activity (Mus musculus [27]): Toxic; Ki [20]: 257 nM; Activity (Mus musculus [21]): 57%; Ki [23]: 14 nM |

Reference: ChEMBL document CHEMBL2311489 (Eur J Med Chem, 2013)
